These results are taken from patent US9221833B2, “Antiviral compounds” (GILEAD PHARMASSET LLC, priority 2011, dated 2015).

Read-outs that look alike come from different tables or passages of the source.

Common to all, as to format: cell-based, HCV
Assay [1] concerns genotype 1b Con1 replicon. In words: microbe, parasite or virus in culture. The protocol: (§1) Evaluation of cell-based anti-HCV activity: Antiviral potency (EC50) was determined using a Renilla luciferase (RLuc)-based HCV replicon reporter assay. […] To perform the assay for genotype 2a (with M31 present in NS5A) or 2b, NS5A chimeric genotype 2a JFH-1 replicons that encodes a RLuc-Neo reporter and either genotype 2a J6 strain NS5A gene or genotype 2b MD2b-1 strain NS5A gene (both with M31 present) respectively, were either transiently transfected (t) into Huh-Lunet cells or were established as stably replicating replicon cells (s) is provided. Either cells were dispensed into 384-well plates for EC50 assays. To perform the assay for genotype 3 and 4, NS5A chimeric genotype 1b Con1 replicons that encodes a Pi-RLuc reporter and either genotype 3a S52 strain NS5A gene or genotype 4a ED43 strain NS5A gene respectively, were transiently transfected (t) into Huh-Lunet cells, which were subsequently dispensed into 384-well plates. Compounds were dissolved in DMSO at a concentration of 10 mM and diluted in DMSO either manually or using an automated pipeting instrument. Serially 3-fold diluted compounds were either manually mixed with cell culture media and added to the seeded cells or directly added to the cells using an automated instrument. […] 72 hours later, cells were lysed and Renilla luciferase activity quantified as recommended by the manufacturer (Promega-Madison, Wis.). Non-linear regression was performed to calculate EC50 values.

Assay [2] deals with genotype 2a JFH-1 replicon (L31 present in NS5A). In words: microbe, parasite or virus in culture. The conditions noted are these: genotype 2a JFH replicon, read-out: 2a JFH. The protocol: as §1
On the technique in general: A replicon is a self-replicating genome or part of one, used to study replication in cells.

For assay [3], the system named is genotype 2b MD2b-1 strain NS5A gene (M31 present). In words: microbe, parasite or virus in culture. The procedure: as §1
In assay [4] the test system is genotype 2a J6 strain NS5A gene (M31 present). In words: Replicon assay, NS5A chimeric 2a JFH-1 replicon with 2a J6 NS5A, transient (t) or stable (s), Huh-Lunet cells. The protocol: as §1
Assay [5] relates to genotype 4a ED43 strain NS5A gene. In words: Replicon assay, NS5A chimeric 1b Con1 replicon with 4a NS5A, transiently transfected Huh-Lunet cells. The protocol: as §1, with “[…],” for “were transiently transfected (t) into Huh-Lunet cells,”
The test system of assay [6] is genotype 3a S52 strain NS5A gene. Briefly: Replicon assay, NS5A chimeric 1b Con1 replicon with 3a NS5A, transiently transfected Huh-Lunet cells. The conditions noted are these: genotype 3a, read-out: 3a. The procedure: as §1
In the next assay the test system is Q30R in genotype 1a NS5A. Briefly: Antiviral potency against resistance mutant, 1a Pi-Rluc replicon in Huh-7-derived cured-51 cells. The conditions noted are these: genotype 1a Q30R resistance mutant, read-out: 1a Q30R. The procedure: as §1
To determine the antiviral potency (EC50) against resistance mutants, resistance mutations, including M28T, Q30R, Q30H, L31M, and Y93C in genotype 1a NS5A and Y93H in genotype 1b NS5A, were introduced individually into either 1a Pi-Rluc or 1b Pi-Rluc replicons by site directed mutagenesis. Replicon RNA of each resistant mutant was transiently transfected into Huh-7-derived cured-51 cells and antiviral potency was determined on these transfected cells as described above.

Setting [7] is: genotype 2b, EC50 range class, transiently transfected cells (t), if unavailable stably replicating cells (s), read-out: 2b.
Where [8] appears, read: stably replicating cells (s), read-out: 2b (s).
The mark [9] stands for this setting: genotype 2a J6, EC50 range class, transiently transfected cells (t), if unavailable stably replicating cells (s), read-out: 2a J6.
Setting [10] is: stably replicating cells (s), read-out: 2a J6 (s).
[11] abbreviates: genotype 4a, EC50 range class, transiently transfected cells (t), if unavailable stably replicating cells (s), read-out: 4a.
Setting [12] is: stably replicating cells (s), read-out: 4a (s).
[13] abbreviates: transiently transfected cells (t), read-out: 4a (t).
Setting [14] is: transiently transfected cells (t), read-out: 2b (t).
The mark [15] stands for this setting: transiently transfected cells (t), read-out: 2a J6 (t).
Where [16] appears, read: Hepatitis C virus, read-out: 1b (nM).

Take `COC[C@H]1C[C@@H](c2nc3ccc4cc5c(cc4c3[nH]2)OCc2cc(-c3ccc4nc([C@@H]6CCCN6C(=O)[C@@H](NC(=O)OC)C(C)C)[nH]c4c3)ccc2-5)N(C(=O)[C@H](NC(=O)OC)c2ccccc2)C1` [Example MS]: the EC50 in assay [1] (read-out: 1b) is 0.008 nM; in assay [2] (EC50 range class), less than 1 nM; in assay [2], 0.005 nM; in assay [3] (setting [7]), greater than 5 nM; in assay [3] (setting [8]) it was 9.56 nM; in assay [4] (setting [9]), greater than 5 nM. Further, the EC50 was 15.6 nM in assay [4] (setting [10]), less than 1 nM in assay [5] (setting [11]), 0.02 nM in assay [5] (setting [12]) and 0.014 nM in assay [5] (setting [13]).

For the molecule `COC[C@H]1C[C@@H](c2nc3c([nH]2)-c2cc4c(cc2CC3)-c2ccc(-c3cnc([C@@H]5CCCN5C(=O)[C@@H](NC(=O)OC)C(C)C)[nH]3)cc2CO4)N(C(=O)[C@H](NC(=O)OC)c2ccccc2)C1` [Example MR, methyl{(1R)-2-[(2S,4S)-2-(9-{2-[(2S)-1-{(2S)-2-[(methoxycarbonyl)amino]-3-methylbutanoyl}pyrrolidin-2-yl)-1H-imidazol-5-yl]-1,11-dihydroisochromeno[4′,3′:6,7]-4,5-dihydro-naphtho[1,2-d]imidazol-2-yl}-(methoxymethyl)pyrrolidin-1-yl]-2-oxo-1-phenylethyl}carbamate], the EC50 is 0.041 nM in assay [1] (read-out: 1b); less than 1 nM in assay [2] (EC50 range class); 0.017 nM in assay [2]; less than 1 nM in assay [3] (setting [7]); 0.053 nM in assay [3] (setting [8]); 0.039 nM in assay [3] (setting [14]). Moreover, the EC50 in assay [4] (setting [9]) was less than 1 nM; in assay [4] (setting [10]), 0.176 nM; in assay [4] (setting [15]), 0.079 nM; in assay [6] (EC50 range class), less than 1 nM; in assay [6], 0.078 nM; in assay [5] (setting [11]) it was less than 1 nM. Also, the results for the EC50 (in assay [5] (setting [13]); in the assay with Q30R in genotype 1a NS5A (EC50 range class); with Q30R in genotype 1a NS5A) were 0.045 nM, less than 1 nM and 0.128 nM, respectively.

As for `COC[C@@H]1C[C@@H](c2nc3ccc4cc5c(cc4c3[nH]2)OCc2cc(-c3cnc([C@@H]4CCCN4C(=O)[C@@H](NC(=O)OC)C(C)C)[nH]3)ccc2-5)N(C(=O)[C@H](NC(=O)OC)c2ccccc2)C1` [Example MQ, methyl{(1R)-2-[(2S,4R)-2-(9-{2-[(2S)-1-{(2S)-2-[(methoxycarbonyl)amino]-3-methylbutanoyl}pyrrolidin-2-yl)-1H-imidazol-5-yl]-1,11-dihydroisochromeno[4′,3′:6,7]naphtho[1,2-d]imidazol-2-yl}-4-(methoxymethyl)pyrrolidin-1-yl]-2-oxo-phenylethyl}carbamate], the EC50 is 0.011 nM in assay [1] (read-out: 1b); less than 1 nM in assay [2] (EC50 range class); 0.004 nM in assay [2]; less than 1 nM in assay [3] (setting [7]); 0.023 nM in assay [3] (setting [8]); 0.009 nM in assay [3] (setting [14]). Besides, the EC50 in assay [4] (setting [9]) was less than 1 nM; in assay [4] (setting [10]), 0.095 nM; in assay [4] (setting [15]), 0.017 nM; in assay [6] (EC50 range class) it was less than 1 nM; in assay [6] it was 0.016 nM; in assay [5] (setting [11]) it was less than 1 nM. Besides, the values for the EC50 in the assay on Q30R in genotype 1a NS5A (EC50 range class) and with Q30R in genotype 1a NS5A were less than 1 nM and 0.023 nM, respectively.

Take `COC(=O)N[C@H](C(=O)N1CCC[C@H]1c1ncc(-c2ccc3c(c2)COc2cc4c(cc2-3)CCc2[nH]c([C@@H]3CCCN3C(=O)[C@@H](NC(=O)OC)C(C)C)nc2-4)[nH]1)C(C)C` [Example ME]: the EC50 is 0.049 nM in assay [1] (read-out: 1b); less than 1 nM in assay [2] (EC50 range class); 0.012 nM in assay [2]; less than 1 nM in assay [3] (setting [7]); 0.701 nM in assay [3] (setting [8]); 0.198 nM in assay [3] (setting [14]). Besides, the EC50 in assay [4] (setting [9]) was 1 to 4.99 nM; in assay [4] (setting [10]) it was 16.1 nM; in assay [4] (setting [15]), 3.43 nM; in assay [6] (EC50 range class) it was less than 1 nM; in assay [6], 0.015 nM; in assay [5] (setting [11]), less than 1 nM. The EC50 was 0.029 nM in assay [5] (setting [12]), 0.016 nM in assay [5] (setting [13]), 1 to 44 nM in the assay with Q30R in genotype 1a NS5A (EC50 range class) and 2.51 nM in the assay on Q30R in genotype 1a NS5A.

Turning to `COC[C@H]1C[C@@H](c2nc3ccc4cc5c(cc4c3[nH]2)OCc2cc(-c3cnc([C@@H]4C[C@H](C)CN4C(=O)[C@H](NC(=O)OC)c4ccccc4)[nH]3)ccc2-5)N(C(=O)[C@@H](NC(=O)OC)C(C)C)C1` [Example PF, methyl {1-[2-{9-[2-(1-{[(methoxycarbonyl)amino](phenyl)acetyl}-4-methylpyrrolidin-2-yl)-1H-imidazol-5-yl]-1,11-dihydroisochromeno[4′,3′:6,7]naphtho[1,2-d]imidazol-2-yl}-4-(methoxymethyl)pyrrolidin-1-yl]-3-methyl-1-oxobutan-2-yl}carbamate], in assay [1] (setting [16]), the EC50 worked out at 0.044 nM.

For the molecule “dimethyl (2S,2′S)-1,1′-((2 S,2′S)-2,2′l-pyrrolidin-2-yl)-5H-naphtho[c,g]chromeno[8,9-d]imidazol-9-yl)-1H-imidazol-2-yl)pyrrolidin-1-yl))bis(3-methyl-1-oxobutane-2,1-diyl)dicarbamate [Example MC]”, the EC50 is 0.017 nM in assay [1] (read-out: 1b); less than 1 nM in assay [2] (EC50 range class); 0.004 nM in assay [2]; less than 1 nM in assay [3] (setting [7]); 0.375 nM in assay [3] (setting [8]); 0.162 nM in assay [3] (setting [14]). For the same molecule, the EC50 is 1 to 4.99 nM in assay [4] (setting [9]); 3.52 nM in assay [4] (setting [10]); 1.16 nM in assay [4] (setting [15]); less than 1 nM in assay [6] (EC50 range class); 0.004 nM in assay [6]; less than 1 nM in assay [5] (setting [11]). In addition, the EC50 in assay [5] (setting [12]) was 0.028 nM; in assay [5] (setting [13]) it was 0.008 nM; in the assay on Q30R in genotype 1a NS5A (EC50 range class), less than 1 nM; in the assay with Q30R in genotype 1a NS5A, 0.99 nM.

In the case of `COC(=O)N[C@H](C(=O)N1CCC[C@H]1c1ncc(-c2ccc3c(c2)COc2cc4c(ccc5nc([C@@H]6C[C@H](C)CN6C(=O)[C@H](NC(=O)OC)c6ccccc6)[nH]c54)cc2-3)[nH]1)C(C)C` [Example MY, Methyl {2-[2-{9-[2-(1-{2-[(methoxycarbonyl)amino]-3-methylbutanoyl}pyrrolidin-2-yl)-1H-imidazol-5-yl]-1,11-dihydroisochromeno[4′,3′:6,7]naphtho[1,2-d]imidazol-2-yl}-4-(methyl)pyrrolidin-1-yl]-2-oxo-1-phenylethyl}carbamate], in assay [1] (setting [16]), the EC50 came out at 0.015 nM.

As for `COC[C@H]1C[C@@H](c2ncc(-c3ccc4c(c3)COc3cc5c(ccc6nc([C@@H]7C[C@H]8C[C@H]8N7C(=O)[C@H](NC(=O)OC)c7ccccc7)[nH]c65)cc3-4)[nH]2)N(C(=O)[C@@H](NC(=O)OC)C(C)C)C1` [Example MV], the EC50 in assay [1] (read-out: 1b) was 0.014 nM; in assay [2] (EC50 range class), less than 1 nM; in assay [2], 0.004 nM; in assay [3] (setting [7]) it was less than 1 nM; in assay [3] (setting [8]), 0.041 nM; in assay [3] (setting [14]) it was 0.034 nM. In addition, the EC50 in assay [4] (setting [9]) is less than 1 nM; in assay [4] (setting [15]), 0.047 nM; in assay [6] (EC50 range class), less than 1 nM; in assay [6] it was 0.011 nM; in assay [5] (setting [11]) it was less than 1 nM; in assay [5] (setting [12]), 0.011 nM. For the same molecule, the EC50 in the assay with Q30R in genotype 1a NS5A (EC50 range class) was less than 1 nM; in the assay with Q30R in genotype 1a NS5A, 0.012 nM.
